16 compounds from patent publication US8299048B2, “Hexahydrocyclopentyl[f]indazole sulfonamides and derivatives thereof as selective glucocorticoid receptor modulators” (Merck Sharp & Dohme Corp., priority 2008, dated 2012) can be followed below.

This experiment addresses T1, glucocorticoid receptor (Homo sapiens, UniProt P04150).
T1 construct: endogenous in cells
T1 sequence (P04150 1-777): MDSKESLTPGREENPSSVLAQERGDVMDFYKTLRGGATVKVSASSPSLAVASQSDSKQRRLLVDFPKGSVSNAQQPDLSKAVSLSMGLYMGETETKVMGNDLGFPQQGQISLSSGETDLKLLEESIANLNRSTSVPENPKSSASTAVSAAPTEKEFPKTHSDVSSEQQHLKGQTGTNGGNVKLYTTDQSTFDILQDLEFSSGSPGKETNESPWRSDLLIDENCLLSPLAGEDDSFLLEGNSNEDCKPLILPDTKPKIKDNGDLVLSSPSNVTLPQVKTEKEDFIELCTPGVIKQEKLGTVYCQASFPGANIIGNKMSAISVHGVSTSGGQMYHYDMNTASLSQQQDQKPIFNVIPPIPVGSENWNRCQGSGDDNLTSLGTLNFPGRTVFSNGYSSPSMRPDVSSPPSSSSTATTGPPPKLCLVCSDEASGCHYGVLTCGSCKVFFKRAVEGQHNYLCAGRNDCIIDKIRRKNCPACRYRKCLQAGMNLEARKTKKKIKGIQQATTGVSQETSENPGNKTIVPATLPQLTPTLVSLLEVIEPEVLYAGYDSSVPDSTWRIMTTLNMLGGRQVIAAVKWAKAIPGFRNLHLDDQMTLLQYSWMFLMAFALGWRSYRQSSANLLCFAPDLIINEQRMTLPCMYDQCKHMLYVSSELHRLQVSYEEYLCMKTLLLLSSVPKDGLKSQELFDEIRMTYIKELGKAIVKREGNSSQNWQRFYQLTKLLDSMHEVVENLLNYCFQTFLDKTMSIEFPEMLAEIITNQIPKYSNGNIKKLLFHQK
Put plainly: Ligand binding assay (GR BIND). The method, then:
• Materials: • Binding Buffer: TEGM (10 mM Tris-HCl, 1 mM EDTA, 10% glycerol, 1 mM beta-mecaptoethanol, 10 mM Sodium Molybdate, pH 7.2) • 50% HAP Slurry: Calbiochem Hydroxylapatite, Fast Flow, in 10 mM Tris, pH 8.0 and 1 mM EDTA. • Wash Buffer: 40 mM Tris, pH7.5, 100 mM KCl, 1 mM EDTA and 1 mM EGTA.
Phenol red-free Trypsin-EDTA is diluted in the same PBS1:10. The cell layers are rinsed with 1× Trypsin, extra Trypsin is poured out, and the cell layers are incubated at 37° C. for ˜2 min. The flask is tapped and checked for signs of cell detachment. Once the cells begin to slide off the flask, the complete media is added. The cells are counted at this point, then diluted to the appropriate concentration and split into flasks or dishes for further culturing (Usually 1:3 to 1:6 dilution).
When the cells are 70 to 85% confluent, they are detached as described above, and collected by centrifuging at 1000 g for 10 minutes at 4° C. The cell pellet is washed twice with TEGM (10 mM Tris-HCl, 1 mM EDTA, 10% glycerol, 1 mM beta-mercaptoethanol, 10 mM Sodium Molybdate, pH 7.2). After the final wash, the cells are resuspended in TEGM at a concentration of 10^7 cells/mL. The cell suspension is snap frozen in liquid nitrogen or ethanol/dry ice bath and transferred to −80° C. freezer on dry ice. Before setting up the binding assay, the frozen samples are left on ice-water to just thaw (˜1 hr). Then the samples are centrifuged at 12,500 g to 20,000 g for 30 min at 4° C. The supernatant is used to set-up assay right away. If using 50 μL of supernatant, the test compound can be prepared in 50 μL of the TEGM buffer.
1×TEGM buffer is prepared, and the isotope-containing assay mixture is prepared in the following order: EtOH (2% final concentration in reaction), 3H-DEX (Amersham Biosciences) and 1×TEGM. [e.g. For 100 samples, 200 μL (100×2) of EtOH+4.25 μL of 1:10 ^3H—Dex stock+2300 μL (100×23) 1×TEGM]. The compound is serially diluted, e.g., if starting final conc. is 1 μM, and the compound is in 25 μL of solution, for duplicate samples, 75 μL of 4×1 μM solution is made and 3 μL of 100 μM is added to 72 μL of buffer, and 1:5 serial dilution.
25 μL of ^3H-DEX (6 nM) trace and 25 μL compound solution are first mixed together, followed by addition of 50 μL receptor solution. The reaction is gently mixed, spun briefly at about 200 rpm and incubated at 4° C. overnight. 100 μL of 50% HAP slurry is prepared and added to the incubated reaction which is then vortexed and incubated on ice for 5 to 10 minutes. The reaction mixture is vortexed twice more to resuspend HAP while incubating reaction. The samples in 96-well format are then washed in wash buffer using The FilterMate™ Universal Harvester plate washer (Packard). The washing process transfers HAP pellet containing ligand-bound expressed receptor to Unifilter-96 GF/B filter plate (Packard). The HAP pellet on the filter plate is incubated with 50 μL of MICROSCINT (Packard) scintillint for 30 minutes before being counted on the TopCount microscintillation counter (Packard). […] are calculated using DEX as a reference.

In general, Ki refers to the dissociation constant of the complex between target and ligand, obtained from inhibition or displacement. Take `C[C@@H](O)CN(C[C@H]1CCC2=Cc3c(cnn3-c3ccc(F)cc3)C[C@@]21C)S(=O)(=O)c1ccc(F)c(Cl)c1` [Example 115, 3-chloro-4-fluoro-N-{[(4αR,5S)-1-(4-fluorophenyl)-4α-methyl-1,4,4α,5,6,7-hexahydrocyclopenta[f]indazol-5-yl]methyl}-N-[(2R)-2-hydroxypropyl]benzenesulfonamide]: the Ki is 2.9 nM.

The compound `C[C@]12Cc3cnn(-c4ccc(F)cc4)c3C=C1CC[C@@H]2CN(CCc1ccccc1O)S(=O)(=O)c1ccccc1F` [Example 116, 2-fluoro-N-{[(4αR,5S)-1-(4-fluorophenyl)-4α-methyl-1,4,4α,5,6,7-hexahydrocyclopenta[f]indazol-5-yl]methyl}-N-[2-(2-hydroxyphenyl)ethyl]benzenesulfonamide] had an inhibition constant (Ki) of 1.4 nM.

In the case of `C[C@]12Cc3cnn(-c4ccc(F)cc4)c3C=C1CC[C@@H]2CN(CCO)S(=O)(=O)c1ccccc1C(N)=O` [Example 117, 2-{[{[(4αR,5S)-1-(4-fluorophenyl)-4α-methyl-1,4,4α,5,6,7-hexahydrocyclopenta[f]indazol-5-yl]methyl}(2-hydroxyethyl)amino]sulfonyl}benzamide], the Ki is 9.4 nM.

Regarding `COCCN(C[C@H]1CCC2=Cc3c(cnn3-c3ccc(F)cc3)C[C@@]21C)S(=O)(=O)CCN1C(=O)c2ccccc2C1=O` [Example 118, 2-(1,3-dioxo-1,3-dihydro-2H-isoindol-2-yl)-N-{[(4αR,5S)-1-(4-fluorophenyl)-4α-methyl-1,4,4α,5,6,7-hexahydrocyclopenta[f]indazol-5-yl]methyl}-N-(2-methoxyethyl)ethanesulfonamide], the Ki was 3.8 nM.

Take `COc1ccccc1CCN(C[C@H]1CCC2=Cc3c(cnn3-c3ccc(F)cc3)C[C@@]21C)S(=O)(=O)Cc1cccc(C(F)(F)F)c1` [Example 119, N-{[(4αR,5S)-1-(4-fluorophenyl)-4α-methyl-1,4,4α,5,6,7-hexahydrocyclopenta[f]indazol-5-yl]methyl}-N-[2-(2-methoxyphenyl)ethyl]-1-[3-(trifluoromethyl)phenyl]methanesulfonamide]: the affinity, expressed as Ki, was 2.3 nM.

As to `COc1ccccc1CCN(C[C@H]1CCC2=Cc3c(cnn3-c3ccc(F)cc3)C[C@@]21C)S(=O)(=O)CC(F)(F)F` [Example 120, 2,2,2-trifluoro-N-{[(4αR,5S)-1-(4-fluorophenyl)-4α-methyl-1,4,4α,5,6,7-hexahydrocyclopenta[f]indazol-5-yl]methyl}-N-[2-(2-methoxyphenyl)ethyl]ethanesulfonamide], affinity was put at a Ki of 1.3 nM.

Consider `C[C@]12Cc3cnn(-c4ccc(F)cc4)c3C=C1CC[C@@H]2CN(CCc1ccccc1F)S(=O)(=O)CCN1C(=O)c2ccccc2C1=O` [Example 121, 2-(1,3-dioxo-1,3-dihydro-2H-isoindol-2-yl)-N-[2-(2-fluorophenyl)ethyl]-N-{[(4αR,5S)-1-(4-fluorophenyl)-4α-methyl-1,4,4α,5,6,7-hexahydrocyclopenta[f]indazol-5-yl]methyl}ethanesulfonamide], for which the inhibition constant Ki came out at 5.3 nM.

As for `C[C@]12Cc3cnn(-c4ccc(F)cc4)c3C=C1CC[C@@H]2CN(CCc1ccccc1O)S(=O)(=O)Cc1cccc(C(F)(F)F)c1` [Example 122, N-{[(4αR,5S)-1-(4-fluorophenyl)-4α-methyl-1,4,4α,5,6,7-hexahydrocyclopenta[f]indazol-5-yl]methyl}-N-[2-(2-hydroxyphenyl)ethyl]-1-[3-(trifluoromethyl)phenyl]methanesulfonamide], the affinity corresponds to a Ki of 2.9 nM.

Take `Cc1noc(C)c1S(=O)(=O)N(CCc1ccccc1O)C[C@H]1CCC2=Cc3c(cnn3-c3ccc(F)cc3)C[C@@]21C` [Example 123, N-{[(4αR,5S)-1-(4-fluorophenyl)-4α-methyl-1,4,4α,5,6,7-hexahydrocyclopenta[f]indazol-5-yl]methyl}-N-[2-(2-hydroxyphenyl)ethyl]-3,5-dimethylisoxazole-4-sulfonamide]: the Ki is 0.9 nM.

The compound `C[C@]12Cc3cnn(-c4ccc(F)cc4)c3C=C1CC[C@@H]2CN(CCc1ccccc1F)S(=O)(=O)Cc1cccnc1` [Example 124, N-[2-(2-fluorophenyl)ethyl]-N-{[(4αR,5S)-1-(4-fluorophenyl)-4α-methyl-1,4,4α,5,6,7-hexahydrocyclopenta[f]indazol-5-yl]methyl}-1-pyridin-3-ylmethanesulfonamide] gave a Ki of 0.7 nM.

`COc1ccccc1CCN(C[C@H]1CCC2=Cc3c(cnn3-c3ccc(F)cc3)C[C@@]21C)S(=O)(=O)Cc1cccnc1` [Example 125, N-{[(4αR,5S)-1-(4-fluorophenyl)-4α-methyl-1,4,4α,5,6,7-hexahydrocyclopenta[f]indazol-5-yl]methyl}-N-[2-(2-methoxyphenyl)ethyl]-1-pyridin-3-ylmethanesulfonamide] had an inhibition constant Ki of 1 nM.

`COc1cccc(CCN(C[C@H]2CCC3=Cc4c(cnn4-c4ccc(F)cc4)C[C@@]32C)S(=O)(=O)CC(F)(F)F)c1` [Example 126, 2,2,2-trifluoro-N-{[(4αR,5S)-1-(4-fluorophenyl)-4α-methyl-1,4,4α,5,6,7-hexahydrocyclopenta[f]indazol-5-yl]methyl}-N-[2-(3-methoxyphenyl)ethyl]ethanesulfonamide]: the Ki stood at 0.9 nM.

`COc1ccc(CCN(C[C@H]2CCC3=Cc4c(cnn4-c4ccc(F)cc4)C[C@@]32C)S(=O)(=O)CC(F)(F)F)cc1` [Example 127, 2,2,2-trifluoro-N-{[(4αR,5S)-1-(4-fluorophenyl)-4α-methyl-1,4,4α,5,6,7-hexahydrocyclopenta[f]indazol-5-yl]methyl}-N-[2-(4-methoxyphenyl)ethyl]ethanesulfonamide]: the inhibitory constant (Ki) worked out at 1.1 nM.

`C[C@]12Cc3cnn(-c4ccc(F)cc4)c3C=C1CC[C@@H]2CN(CCc1ccccn1)S(=O)(=O)CC(F)(F)F` [Example 128, 2,2,2-trifluoro-N-{[(4αR,5S)-1-(4-fluorophenyl)-4α-methyl-1,4,4α,5,6,7-hexahydrocyclopenta[f]indazol-5-yl]methyl}-N-(2-pyridin-2-ylethyl)ethanesulfonamide] gave a Ki of 0.8 nM.

The compound `C[C@]12Cc3cnn(-c4ccc(F)cc4)c3C=C1CC[C@@H]2CN(CCc1ccncc1)S(=O)(=O)CC(F)(F)F` [Example 129, 2,2,2-trifluoro-N-{[(4αR,5S)-1-(4-fluorophenyl)-4α-methyl-1,4,4α,5,6,7-hexahydrocyclopenta[f]indazol-5-yl]methyl}-N-(2-pyridin-4-ylethyl)ethanesulfonamide] showed a Ki of 1.9 nM.

In the case of `C[C@]12Cc3cnn(-c4ccc(F)cc4)c3C=C1CC[C@@H]2CN(CCc1ccc(O)cc1)S(=O)(=O)CC(F)(F)F` [Example 130, 2,2,2-trifluoro-N-{[(4αR,5S)-1-(4-fluorophenyl)-4α-methyl-1,4,4α,5,6,7-hexahydrocyclopenta[f]indazol-5-yl]methyl}-N-[2-(4-hydroxyphenyl)ethyl]ethanesulfonamide], the affinity corresponds to a Ki of 1.8 nM.
